Where two headings read alike, the source gives them in different places.
Experiments:
[1] = Time to resolution (TTR) of AEs after treatment interruption or discontinuation, pooled cohorts; assay type: in vivo, human
Description: Five of the most common AEs associated with axitinib treatment were assessed: diarrhea; fatigue; hypertension; nausea; and palmar-plantar erythrodysesthesia syndrome (PPE). Incidences of treatment-emergent AEs were taken from the full published articles for each study. AEs were classified and graded per the Common Terminology Criteria for Adverse Events version 3.0 or the National Cancer Institute Common Terminology Criteria for Adverse Events version 4.03, as used in each individual study. Incidences of AEs were reported for any grade and for grade ≥3.

[2] = cited from earlier work
[3] = Action taken for each occurrence of each AE by pooled treatment cohort; conditions: occurrences of the AE
Description: To determine the TTR for each of the AEs, data were pooled for different treatment cohorts as follows: patients who received axitinib monotherapy (axitinib monotherapy cohort); patients who received axitinib in combination with IO therapy (axitinib+10 cohort); and patients in comparator treatment arms who received another TKI as monotherapy, i.e., sorafenib or sunitinib (other TKI cohort). TTR was calculated for all causality, treatment-emergent AEs. For each AE reported for patients in each pooled cohort, the action taken on presentation of the AE was documented. […] TTR was determined for AEs of any grade and for grade Data were descriptive only; no statistical comparisons were made.
Action taken was determined as ‘not applicable’ when the associated drug was already permanently discontinued when the AE occurred.

[4] = AEs of any grade, after treatment interruption or discontinuation
[5] = AEs of grade 3 or higher (FIG. 2)
[6] = drug already permanently discontinued

CNC(=O)c1ccccc1Sc1ccc2c(/C=C/c3ccccn3)n[nH]c2c1 [Axitinib, axitinib]
median (IQR) TTR, PPE [1, 4]: 3 (3-5) days
median (IQR) TTR, diarrhea [1, 4]: 3 (1-6) days
median (IQR) TTR, hypertension [1, 4]: 1 (1-3) days
median (IQR) TTR, nausea [1, 4]: 3 (1-7) days
median (IQR) TTR, fatigue ([1]; AEs of any grade, after treatment interruption or discontinuation, listed as INLYTA monotherapy): 8 days
median (IQR) TTR, fatigue ([1]; AEs of any grade, after treatment interruption or discontinuation, listed as axitinib monotherapy): 8 (4-16) days
median (IQR) TTR, PPE [1, 5]: 3 (1-6) days
median (IQR) TTR, diarrhea [1, 5]: 3 (2-6) days
median (IQR) TTR, hypertension [1, 5]: 2 (1-8) days
median (IQR) TTR, nausea [1, 5]: 4 (2-15) days
median (IQR) TTR, fatigue ([1]; AEs of grade 3 or higher (FIG. 2), listed as INLYTA monotherapy): 8 days
median (IQR) TTR, fatigue ([1]; AEs of grade 3 or higher (FIG. 2), listed as axitinib monotherapy): 8 (5-16) days
Median TTR for adverse reactions, except for fatigue (range of medians) ([1]; all grade): 1 to 3 days
Median TTR for adverse reactions, except for fatigue (range of medians) ([1]; grade 3 or higher): 2 to 4 days
half-life ([2]; after a single 5 mg dose): 2.5 to 6.1 h
Diarrhea, action taken: Stopped temporarily and reduced [3]: 0 n
Diarrhea, action taken: Unknown [3]: 0 n
Fatigue, action taken: Stopped temporarily and reduced [3]: 0 n
Fatigue, action taken: Unknown [3]: 0 n
Hypertension, action taken: Stopped temporarily and reduced [3]: 0 n
Hypertension, action taken: Unknown [3]: 0 n
Nausea, action taken: Permanently discontinued [3]: 0 n
Nausea, action taken: Stopped temporarily and reduced [3]: 0 n
Nausea, action taken: Unknown [3]: 0 n
PPE, action taken: Stopped temporarily and reduced [3]: 0 n
PPE, action taken: Unknown [3]: 0 n
Diarrhea, action taken: Not applicable [3, 6]: 0 n
Fatigue, action taken: Not applicable [3, 6]: 0 n
Hypertension, action taken: Not applicable [3, 6]: 0 n
Nausea, action taken: Not applicable [3, 6]: 0 n
PPE, action taken: Not applicable [3, 6]: 0 n

CNC(=O)c1cc(Oc2ccc(NC(=O)Nc3ccc(Cl)c(C(F)(F)F)c3)cc2)ccn1 [Sorafenib, sorafenib]
half-life ([2]; in vivo): 25 to 48 h

CCN(CC)CCNC(=O)c1c(C)[nH]c(/C=C2\C(=O)Nc3ccc(F)cc32)c1C [Sunitinib, sunitinib]
half-life ([2]; in vivo): 40 to 60 h

COc1cc2nccc(Oc3ccc(NC(=O)C4(C(=O)Nc5ccc(F)cc5)CC4)cc3)c2cc1OC [cabozantinib]
half-life ([2]; in vivo): ~99 h

COc1cc2nccc(Oc3ccc(NC(=O)NC4CC4)c(Cl)c3)c2cc1C(N)=O [lenvatinib]
half-life ([2]; in vivo): ~28 h

— US20220168293A1, “TIME TO RESOLUTION OF AXITINIB-RELATED ADVERSE EVENTS” (PFIZER INC., priority 2020, published 2022)
